Assay results published in patent US11376228B2 (Genifarm Laboratories Inc, priority 2018, dated 2022).

What was measured:
Type in all cases: cell-based
[1] = tested on: human prostate cancer cells PC3; experiment: MTT assay, proliferation of human prostate cancer cells PC3; conditions: for IC50: Homo sapiens, PC3, MTT, 48 h, 0-32 μM, read-out: IC50 on the proliferation of human prostate cancer cells PC3; for inhibitory effects on human prostate cancer cells PC3 (in words): PC3, summary of Table 4; for effect compared with control gossypol I-A9, PC3: PC3, versus gossypol I-A9
[2] = tested on: human lung cancer cells A549; experiment: MTT assay, proliferation of human lung cancer cells A549; conditions: for inhibitory effects on human lung cancer cells A549 (in words): A549, summary of Table 3; for effect compared with control gossypol I-A9, A549: A549, versus gossypol I-A9; for IC50: Homo sapiens, A549, MTT, 48 h, 0-80 μM, read-out: IC50 on the proliferation of human lung cancer cells A5499
Experimental: (§1) The original culture medium for human lung cancer cells A549 was removed, and human lung cancer cells A549 were rinsed with 2 mL of phosphate buffer saline (PBS), digested with 0.5 mL of pancreatic enzyme for 3 min. 2 mL of culture medium was added to the cells and the mixture was transferred to a centrifuge tube. The mixture was centrifuged (200 g) for 5 min. The supernatant was removed. 2 mL of culture medium was sprayed five times to the remaining solution. 0.5 mL of cell suspension was transferred to an Eppendorf (EP) tube and the cells were counted. The cells were cultured on a 96-well plate, each well having 2000 cells, 3 wells for each compound. The numbers of the required cells and wells and the amount of culture medium were calculated. The cells were diluted by the culture medium. 100 μL culture medium was added to each well and were evenly dispersed, each well containing 2000 cells. The cells were transferred to the wells using a pipette, and cultured in an incubator.
(§2) (2) Adding Compounds to Culture Medium
(§3) The original culture medium was discarded, and the mother liquor of each compound was diluted to final concentrations of 0, 5, 10, 20, 30, 60 and 80 μM, respectively. Each diluent was uniformized. To each head of a multichannel pipette, 100 μL of the diluent was introduced. Three heads were employed. The diluents were added to 3 marked wells (the cells were undamaged) of a tilted 96-well plate, respectively. Different concentrations of diluents were added to three different marked wells and evenly mixed by alternately sucking and blowing with the multichannel pipette 3 times. The 96-well plate was shaken slightly twice, and cultured in a CO2 incubator.
(§4) The cells were cultured in different compounds for 48 h and were then detected. Specifically, a clean bench was turned on for 15 min, and phosphate buffer saline (PBS) was pre-heated in a warm water bath for 15 min. MTT was taken out of a refrigerator at −20 degrees, protected from light and thawed (MTT stock solution was 5 mg/mL). MTT and a culture medium were mixed evenly in a V-shaped groove to yield a mixture comprising 500 μg/mL MTT and a culture medium (a volume ratio thereof being 1:10). 100 μL of the prepared MTT mixture was added to each well of the 96-well plate using the multichannel pipette, and then incubated at 37° C. for an appropriate time (1 h), thereby reducing the MTT to formazan (purple crystals formed in the cells under a microscope, which were different in medicated cells and unmedicated cells). The upper liquid was removed with a white pipette tip attached to a vacuum pump. For each concentration of the compounds, 3 pipette tips were employed. After the incubation, the MTT mixture was discarded, and then 100 μL of DMSO was added to each well using the multichannel pipette. The 96-well plate was shaken in a shaker for 10 min (until the purple crystals were dissolved in the cells under the microscope).
The absorbance value of the resulting solution was detected at a wavelength of 550 nm with a microplate reader. The survival rate of cells treated with different concentrations of drugs was calculated in accordance with the requirements to make a scatter plot. The IC50 results of each compound on the proliferation of human lung cancer cells A549 were shown in Table 3, where Gossypol I-A9 is a control sample.

[3] = tested on: human gastric cancer cells MKN45; experiment: MTT assay, proliferation of human gastric cancer cells MKN45; conditions: for IC50: Homo sapiens, MKN-45, MKN45, MTT, 48 h, 0-60 μM, read-out: IC50 on the proliferation of human gastric cancer cells MKN45; for inhibitory effects on human gastric cancer cells MKN45 (in words): MKN45, summary of Table 1; for effect compared with control gossypol I-A9, MKN45: MKN45, versus gossypol I-A9
Experimental: as §1, with “gastric” for “lung”, “MKN45” for “A549”
as §2
as §3, with “15,” for “10, 20,”, “30, 45 and” for “30,”, “60” for “60 and 80”
as §4
The absorbance value of the cells was measured at a wavelength of 550 nm with a microplate reader. The survival rate of the cells treated with different concentrations of compounds was calculated to make a scatter plot. The IC50 results of each compound on the proliferation of human gastric cancer cells MKN45 were shown in Table 1, where Gossypol I-A9 is a control sample.

Compound | IC50 [1] [µM] | inhibitory effects on human prostate cancer cells PC3 (in words) [1] | effect compared with control gossypol I-A9, PC3 [1] | also measured
Cc1c(O)c(O)c(C=O)c(COCc2ccccc2)c1-c1ccccc1 [Compound I-25] | 8.32 | significant inhibitory effects | superior than the gossypol I-A9 | 
CCc1cc(COCc2ccccc2)c(C=O)c(O)c1O [Compound I-31] | 7.25 | significant inhibitory effects | superior than the gossypol I-A9 | 
COc1cc(OC)c(Cc2c(C=O)c(O)c(O)c(C)c2-c2ccc([N+](=O)[O-])cc2)c(OC)c1 [Compound I-42, 4,5-dihydroxy-6-methyl-4′-nitro-2-(2,4,6-trimethoxybenzyl)-(1,1′-biphenyl)-3-carbaldehyde] | 2.8 | significant inhibitory effects | superior than the gossypol I-A9 | 
Cc1cc(CSCc2ccccc2)c(C=O)c(O)c1O [I-A4] |  |  |  | inhibitory effects on human lung cancer cells A549 (in words) [2]: inhibitory effects; effect compared with control gossypol I-A9, A549 [2]: slightly inferior to that of the Gossypol I-A9; IC50 [2]: 58.9 µM
COC(=O)c1c(COCc2ccc(OC)cc2)cc(C)c(OC)c1OC [Compound I-100] |  | significant inhibitory effects |  | 
Cc1c(C)c(COCc2ccccc2)c(C=O)c(O)c1O [Compound I-39] |  |  |  | IC50 [3]: 6.62 µM; inhibitory effects on human gastric cancer cells MKN45 (in words) [3]: significant inhibitory effects; effect compared with control gossypol I-A9, MKN45 [3]: better than the control gossypol I-A9
Cc1c(O)c(O)c(C=O)c(CC=C(c2ccccc2)c2ccccc2)c1-c1ccccc1 [Compound I-24] | 7.24 | significant inhibitory effects | superior than the gossypol I-A9 | 
Cc1c(O)c(O)c(C=O)c2c1C(c1ccc(C(F)(F)F)cc1)CC2 (centres unmarked) [Compound I-5] | 7.09 | significant inhibitory effects | superior than the gossypol I-A9 | 
Cc1cc(COCc2ccccc2)c(C=O)c(O)c1O [Compound I-21, 6-((benzyloxy)methyl)-2,3-dihydroxy-4-methylbenzaldehyde] | 8.09 | significant inhibitory effects | superior than the gossypol I-A9 | 
Cc1cc(COCc2ccccc2)c(CO)c(O)c1O [Compound I-96] |  |  |  | inhibitory effects on human gastric cancer cells MKN45 (in words) [3]: significant inhibitory effects
Cc1c(O)c(O)c(C=O)c(COCc2ccccc2)c1-c1ccc(F)cc1 [Compound I-26] | 10.1 | significant inhibitory effects |  | IC50 [3]: 16.8 µM; inhibitory effects on human gastric cancer cells MKN45 (in words) [3]: significant inhibitory effects
Cc1c(O)c(O)c(C=O)c(COCc2ccccc2)c1-c1ccccc1C#N [Compound I-28] |  |  |  | inhibitory effects on human lung cancer cells A549 (in words) [2]: inhibitory effects; effect compared with control gossypol I-A9, A549 [2]: slightly inferior to that of the Gossypol I-A9; IC50 [2]: 67.6 µM
COc1cc(OC)c(Cc2c(C=O)c(O)c(O)c(C)c2-c2ccc(Br)cc2)c(OC)c1 [Compound I-41] | 1.76 | significant inhibitory effects | superior than the gossypol I-A9 | 

Continued, in another order:

IC50 [1] [µM] | Compound | inhibitory effects on human prostate cancer cells PC3 (in words) [1] | effect compared with control gossypol I-A9, PC3 [1] | also measured
5.27 | COc1cc(OC)c(Cc2cc(C(C)C)c(O)c(O)c2C=O)c(OC)c1 [Compound I-51] | significant inhibitory effects | superior than the gossypol I-A9 | 
2.37 | Cc1c(O)c(O)c(C=O)c(COCc2ccccc2)c1Br [I-A8, 2-((benzyloxy)methyl)-3-bromo-5,6-dihydroxy-4-methylbenzaldehyde] | significant inhibitory effects | superior than the gossypol I-A9 | 
8.12 | Cc1c(O)c(O)c(C=O)c(COCc2ccccc2)c1-c1cccc2ccccc12 [Compound I-47] | significant inhibitory effects | superior than the gossypol I-A9 | 
6.41 | Cc1c(O)c(O)c(C=O)c(COCc2ccccc2)c1-c1ccc(C(C)(C)C)cc1 [Compound I-46] | significant inhibitory effects | superior than the gossypol I-A9 | 
6.65 | CC(C)c1cc(COCc2ccccc2)c(C=O)c(O)c1O [Compound I-53] | significant inhibitory effects | superior than the gossypol I-A9 | 
2.91 | CCc1c(O)c(O)c(C=O)c(Cc2c(OC)cc(OC)cc2OC)c1-c1ccccc1 [Compound I-44] | significant inhibitory effects | superior than the gossypol I-A9 | 
3.45 | COc1cc(OC)c(Cc2c(C=O)c(O)c(O)c(C)c2-c2ccco2)c(OC)c1 [I-A6, 3-(furan-2-yl)-5,6-dihydroxy-4-methyl-2-(2,4,6-trimethoxybenzyl) benzaldehyde] | significant inhibitory effects | superior than the gossypol I-A9 | 
22.4 | Cc1c(O)c(O)c(C=O)c(COCc2ccccc2)c1-c1ccsc1 [Compound I-48] | significant inhibitory effects |  | 
2.88 | CC(C)c1c(O)c(O)c(C=O)c2c1C(c1ccccc1)CC2 (centres unmarked) [Compound I-50, 5,6-dihydroxy-7-isopropyl-1-phenyl-2,3-dihydro-1H-indene-4-carbaldehyde] | significant inhibitory effects | superior than the gossypol I-A9 | IC50 [3]: 12.3 µM; inhibitory effects on human gastric cancer cells MKN45 (in words) [3]: significant inhibitory effects; effect compared with control gossypol I-A9, MKN45 [3]: better than the control gossypol I-A9
2.05 | CC(C)c1c(O)c(O)c(C=O)c(COCc2ccccc2)c1-c1ccccc1 [Compound I-55] | significant inhibitory effects | superior than the gossypol I-A9 | 
